Results published in patent US9968633B2, “Stimuli responsive compositions for iron chelation” (WISCONSIN ALUMNI RESEARCH FOUNDATION, priority 2014, dated 2018).
“And” between values parts separate entries of the source, which are not always exact repeats. Equal values may be shown once. Where a name gives a salt, the structure may show the parent alone.

Legend:
J774A.1 cells = assay: Cytotoxicity, resazurin assay, normal J774A.1 cells; format: cell-based; settings: Mus musculus, J774.A1, 48 h, DFO equivalents, read-out: Concentration giving 50% cell viability
[1] = test system: Human umbilical vein endothelial cells (HUVEC); assay: Cytotoxicity, resazurin assay, HUVEC; format: cell-based; settings: 48 h, DFO equivalents, read-out: Concentration to inhibit 50% cell growth
Method: Human umbilical vein endothelial cells (HUVEC) were obtained from Lonza, Inc., and cultured at 37° C./5% CO2 in EGM-2 complete medium. For the cytotoxicity assay, cells were seeded into 96-well plates at a density of 3,000 cell/well and allowed to equilibrate for 2 days before treatment. […] Readings from the wells without cells were used as blanks (Eblank), and the readings taken from control cells without treatment (Econtrol) 1 represented 100% cell viability. The viability of treated cells at each concentration can be calculated by the following equation: Cell Viability=100×(Esample˜Eblank)/(Econtrol˜Eblank)%

[2] = test system: iron-overloaded J774A.1 cells; assay: cells; settings: Mus musculus, J774.A1, 48 h, read-out: Concentration giving 50% cell viability
Method: (§1) Mouse macrophage/monocyte cell line, J774A.1, was purchased from American Type Culture Collection (ATCC). Cells were seeded in 96-well plates at a density of 3,000 cells/well, cultured at 37° C., 5% CO2 with DMEM complete medium (supplemented with 10% (v/v) heat-inactivated FBS, 100 I.U./mL penicillin and 100 μg/mL streptomycin), and allowed to settle for 24 h. Cells were then treated with DFO or oxNG-DFO at equivalent DFO concentrations of 1 mM prepared by 1:3 serial dilutions.
(§2) Cell viability was measured with the metabolism-based resazurin assay. Briefly, the substrate resazurin was dissolved in cell culture medium at a concentration of 44 μM, added to each well (100 μl) and incubated at 37° C. for 4 h. The fluorescence was measured with excitation at 560 nm and emission at 590 nm, on a SpectraMax Gemini EM microplate reader. Readings from the wells without cells were used as Eblank, and the readings from control cells without treatment (Econtrol) represented 100% cell viability. The viability of treated cells at different concentrations can be calculated by the following equation: […]
(§3) Similarly, cytotoxicity was also evaluated in iron-overloaded J774A.1 cells as described above.
(§4) To evaluate the cytotoxicity of the nanogels, cells in complete DMEM medium were treated with equivalent amounts of free DFO or oxNG2-DFO ranging from 0.05-1000 μM and allowed to incubate for 48 h prior to evaluating cytotoxicity with a metabolism-based resazurin assay.

in vitro = settings: mouse
Method: as §1, §2, §3, §4

[3] = test system: iron-overloaded J774A.1 cells; assay: Ferritin reduction assay in iron overloaded J774A.1 cells; format: cell-based, mouse; settings: for Ferritin decrease: 48 h
Method: J774A.1 cells were seeded in 6-well plates at a density of 30,000 cell/well and allowed to settle for 24 h at 37° C., 5% CO2 with DMEM complete medium before treatment. […] Subsequently, cells were washed with PBS and treated with DFO or oxNG-DFO at both 10 μM and 50 μM for 48 h. […] After 48 h incubation with DFO or oxNG-DFO, cells were lysed with cell lysis buffer (150 mM NaCl, 10 mM Tris, 1% Triton X-100 and protease inhibitor cocktail, pH 7.4) and total protein concentration was measured with the BCA protein assay kit. Cellular ferritin concentration was measured with a mouse ferritin ELISA kit. The results are plotted as the ratio of ng of ferritin per μg total protein concentration.
Subsequently, iron-loaded cells were treated for 48 h with 10 μM or 50 μM free DFO or equivalent oxNG2-DFO.

Molecule | IC50 (J774A.1 cells) | IC50 [1] | IC50 [2] | viability at 48 h, 10 μM (in vitro) | viability at 48 h, 50 μM (in vitro) | Cellular ferritin level [3] | Ferritin decrease ([3]; 10 μM DFO or equivalent) | Ferritin decrease ([3]; 50 μM DFO or equivalent) | Cellular ferritin expression after iron loading [3]
CC(=O)N(O)CCCCCNC(=O)CCC(=O)N(O)CCCCCNC(=O)CCC(=O)N(O)CCCCCN [DFO, Deferoxamine mesylate] | ~10 µM | ~2 µM | ~15 µM | ~50% | < 50% | 5.33 ng/μg total protein and 2.84 ng/μg total protein | 37.4% | 66.6% | 
Ferric ammonium citrate [FAC] |  |  |  |  |  |  |  |  | 8.51 ng/µg
